In one assay the test system is caspase 1. Nature of the assay: Caspase 1 activity assay in PMA-differentiated THP1 cells treated with LPS and ATP. It is filed as cell-based, human. Conditions: peptide at 2 nM-20 nM (tested 0-500 nM). On the procedure: THP1-null (THP1) cells were plated at a final concentration of 1×10^6/mL in 96 well plates and incubated with PMA (0.5 μM) for 3 hours 37° C. in supplemented RPMI. Media was subsequently changed every 24 hours for 3 days. Various subsets of wells were selected and cells were treated for 60 minutes at 37° C. in serum-free RPMI with: (A) APC (4 μg/mL), TR47 (50 μM-2 nM), scrTR47 (50 μM), SFLLRN (50 μM), TFLLRN (50 μM); (B) P3R (50 μM-500 nM), P3K (50 μM); (C) APC (4 or 1 μg/mL), TR47 (8 nM), P3R (500 nM) or TR47+P3R (8 nM and 500 nM, respectively); (D) TR47 (0-128 nM) (●)±P3R (500 nM) (□); (E) P3R (0-500 nM) (●)±TR47 (1 nM) (□). Following DPBS wash, cells were incubated with LPS (1 μg/mL) for 3 hours at 37° C. in serum-free RPMI. After a DPBS wash, cells were incubated with ATP (5 mM) in the presence or absence of 10 μM YVAD (caspase 1 inhibitor) or 2.5 μM ZVAD (pan-caspase inhibitor) for 45 minutes at 37° C., prior to performing the caspase 1 activity assay following manufacturer's directions measuring luminescence (relative luminescent units, RLU). (D & E) Experimental caspase 1 activity was normalized to YVAD (caspase 1 inhibitor) luminescence units. (A-E) Data points represent mean±S.D. of at least 3 independent experiments. *P<0.05 (vs. LPS+ATP); #P<0.05 (vs. LPS+ATP & APC, TR47 or P3R); **P<0.005 (vs. LPS+ATP & TR47+500 nM P3R); n.s. not significant.
THP1 cells were plated at a final concentration of 1×10^6/mL in 96 well plates and incubated with PMA (0.5 μM) for 3 hours 37° C. in supplemented RPMI. Media was subsequently changed every 24 hours for 3 days. Selected wells were treated with APC (4 μg/mL), (A) 50 μM or (B) 2 μM of P3R, P3Rm, P3R 51-65, P3R 51-59, P3R 54-59 or P3R 59-65 for 1 hour, washed with DPBS, and incubated with LPS (1 μg/mL) for 3 hours at 37° C. in serum-free RPMI. Cells were washed with DPBS and incubated with ATP (5 mM) in the presence or absence of 10 μM YVAD (caspase 1 inhibitor; C1i) or 2.5 μM ZVAD (pan-caspase inhibitor; pCi) for 45 minutes at 37° C., prior to performing the caspase 1 activity assay following manufacturer's directions measuring luminescence (relative luminescent units, RLU). (C) Diagram showing the PAR3 sequence, peptide sequences and relative (anti-inflammatory) activity. These include sequences of P3R (SEQ ID NO:4), P3Rm (SEQ ID NO:8), P3R 51-65 (SEQ ID NO:9), P3R 51-59 (SEQ ID NO:10), P3R 54-59 (SEQ ID NO:54) and P3R 59-65 (SEQ ID NO:55).
THP1 cells were plated at a final concentration of 1×10^6/mL in 96 well plates and incubated with PMA (0.5 μM) for 3 hours 37° C. in supplemented RPMI. Media was subsequently changed every 24 hours for 3 days. Selected wells were treated with APC (4 μg/mL), TR47, in (A) 9-mer (TR47 9-mer; NPNDKYEPF (SEQ ID NO:36)) or Ac-TR47 (Acylated TR47) at either 50 μM or 10 nM or (B) 50 μM of 16-mer-TR47, 8-mer-TR47, 6-mer-TR47, TR47 N−1, TR47 N−2, TR47 N−5, TR47AQ, TR47AD, TR47AA or TR48-54 for 1 hour, washed with DPBS, and incubated with LPS (1 μg/mL) for 3 hours at 37° C. in serum-free RPMI. Cells were washed with DPBS and incubated with ATP (5 mM) in the presence or absence of 10 μM YVAD (caspase 1 inhibitor; C1i) or 2.5 μM ZVAD (pan-caspase inhibitor; pCi) for 45 minutes at 37° C., prior to performing the caspase 1 activity assay following manufacturer's directions measuring luminescence (relative luminescent units, RLU). #P<0.001 (vs. LPS+ATP), **P<0.005 (vs. LPS+ATP), * (P<0.05 vs. LPS+ATP). (C) Diagram showing the PAR1 sequence, peptide sequences and relative (anti-inflammatory) activity. These include sequences of TR47 (SEQ ID NO:7), Ac-TR47 (SEQ ID NO:56), 16-mer-TR47 (SEQ ID NO:43), 9-mer-TR47 (SEQ ID NO:36), 8-mer-TR47 (SEQ ID NO:35), 6-mer-TR47 (SEQ ID NO:33), TR47 N−1 (SEQ ID NO:47), TR47 N−2 (SEQ ID NO:51), TR47 N−5 (SEQ ID NO:48), TR47AQ (SEQ ID NO:49), TR47AD (SEQ ID NO:52), TR47AA (SEQ ID NO:50) and TR48-54 (SEQ ID NO:53). […]

Assay [1] concerns endothelial cells (EA.hy926). Nature of the assay: Transendothelial Electric Resistance (TER) assay of thrombin-induced endothelial barrier disruption. It counts as cell-based. The text has this:
The bottom curve in each panel of the figure is labeled as IIa for thrombin alone and represents the observed effects for thrombin (IIa) in the absence of peptide. In each panel, IIa was always present for each peptide added. The number in each panel indicates the concentration of each peptide for the respective curves. The peptide concentration of 0 is represented by the bottom curve labeled “IIa”. (A) the dose response inhibition over time of TER, expressed by Normalized Cell Index (NCI) by the PAR1 derived peptide P1(47-66) or TR47 using concentrations between 5 and 50 nM. (B) the dose response inhibition over time of NCI by the PAR3-derived peptide P3(42-65) or P3R using a 5 to 50 nM concentration range. (C) The NCI dose response inhibition over time by the short sequence PAR1-derived peptide P1(47-55) using a range of concentrations between 50 nM and 100 μM peptide. (D) The NCI dose response inhibition over time by the short sequence PAR3-derived peptide P3(42-54) using a range of concentrations between 1 μM and 200 μM peptide. (E) The NCI dose response inhibition over time by the hybrid peptide G10 in which the P1(47-55) peptide described in panel C was linked to a PAR3 peptide P3(51-65) by using 10 Gly residues. In this case the range of concentrations to study the dose response inhibition was between 3 and 50 nM peptide. An estimate for the percentage of activity for each peptide dilution in presence of thrombin can be quantified by obtaining the Area under the Curve (AUC) for each peptide dilution in comparison to the value for the AUC for thrombin alone in the absence of any peptide. These values were used to calculate the potency of each PAR peptide.
Transendothelial Electric Resistance (TER)-based assays were used to monitor the disruption of endothelial barrier integrity caused by thrombin. The anti-inflammatory, vasculoprotective actions of different PAR peptides for protecting against thrombin-induced vascular leakage on cultured endothelial cells (EA.hy926) were followed in real time using an iCELLigence machine (ACEA Biosciences Inc, San Diego, Calif.). EA.hy926 cells at a density of 10,000/well were pipetted into the wells of gold-plated microelectrode sensor (L8, Acea Biosciences). Subsequently, the increase of electrical resistance was monitored as cells grew and spread out on the microelectrodes to obtain confluence (reaching a plateau) over the TER plates connected to the recording instrument that detected in real time the changes in TER for each well. The effects of different PAR-derived peptides at the indicated concentrations were tested for dose-response inhibition of thrombin's effects when each of the peptide dilutions was added 30 min prior to the addition of thrombin (0.25 nM final in all wells). The percentage of inhibition was proportional to the increase in TER signal over time. Cell index values, reflecting TER signals, were normalized prior to addition of thrombin following manufacturer's directions.

pEC50: −log10 of the molar value.

With “NPNDKYEPFGGGGGGGGGGFPFSALEGWTGATIT [G10, PAR1/PAR3 fusion peptide, P1(47-55) linked to P3(51-65) by 10 Glycine residues]”, in the assay on caspase 1, the caspase-1 activity result is given as “a significant reduction in caspase-1 activity”. In addition, the “effect on thrombin-induced disruption of endothelial barrier” value in assay [1] (peptide at 3 to 50 nM) is given as “very significant effects”. Besides, the “effectiveness relative to PAR3 peptide P3(42-54) alone” value in assay [1] (protection of endothelial barrier integrity) is recorded as > 100 fold. The “potency relative to the long PAR1 peptide TR47” value in assay [1] (protection of endothelial barrier integrity, 6 nM G10 compared to 50 nM PAR1 peptide) was ~8 fold. Moreover, the pEC50 in assay [1] (stabilization of endothelial cell barrier integrity, thrombin 0.25 nM, peptide added 30 min prior, read-out: half-maximum observed activity) is ~8.22.

The values are drawn from US20220313780A1, “METHODS AND COMPOSITIONS FOR TREATING INFLAMMATORY CONDITIONS” (THE SCRIPPS RESEARCH INSTITUTE, priority 2019, published 2022).
